Reference: patent US10316039B2, “P2X3 and/or P2X2/3 compounds and methods” (Asana Biosciences, LLC, priority 2013, dated 2019)

Tests used:
P2X3 = biological target: T1, P2X3 (UniProt P56373); assay: P2X3 FLIPR intracellular calcium assay; type: cell-based; details: agonist at EC75, species (human or rat) not given
T1 sequence (P56373 1-397): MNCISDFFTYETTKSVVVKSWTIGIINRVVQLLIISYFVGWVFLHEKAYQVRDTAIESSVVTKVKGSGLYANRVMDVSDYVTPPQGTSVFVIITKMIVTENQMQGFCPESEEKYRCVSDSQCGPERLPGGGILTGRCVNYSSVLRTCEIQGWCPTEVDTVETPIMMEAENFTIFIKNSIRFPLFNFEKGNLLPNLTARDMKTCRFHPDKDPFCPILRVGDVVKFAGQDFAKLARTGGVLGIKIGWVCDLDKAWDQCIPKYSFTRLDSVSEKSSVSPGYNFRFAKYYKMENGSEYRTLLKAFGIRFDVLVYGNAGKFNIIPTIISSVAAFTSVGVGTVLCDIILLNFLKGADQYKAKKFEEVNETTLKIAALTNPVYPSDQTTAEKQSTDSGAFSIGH
Method in brief: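 Human P2X3-HEK, human P2X2/3-TRex293, rat P2X2/3-TRex293 or rat P2X3 TRex-CHO cells loaded with Calcium 4 dye (1.8 mM probenecid, pH 7.4).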

[1] = test system: formalin-induced hind limb flinching; assay: Formalin induced pain (Automated Nociception Analyzer test); type: in vivo; details: rat, 100 mg/kg oral gavage, 30 min before footpad formalin
Experimental: FIG. 3 illustrates the antinociceptive effects of the compound of example 22 in a rat model of ongoing spontaneous pain. The compound of example 22 was administered by oral gavage at a dose of 100 mg/kg followed 30 min later by a footpad injection of a dilute formalin solution. Formalin elicits a typical biphasic nociceptive response that manifests as spontaneous hind limb flinches which are counted and binned over 5 min epochs. […] Male Sprague Dawley rats of young adult age group and body weight range of 200-250 g were included in the study. Animals were housed under a 12 h light/dark cycle with food and water ad libitum. Animals were acclimatized in the observation chambers of Automated Nociception Analyzer (ANA) for 45-60 min, twice daily for two days prior to the study day. On the day of the study, metal bands were glued to the plantar surface of the right hind paw of each animal enrolled in the study set and kept in plastic observation chambers for 10-15 min. […] […] count data for each animal was recorded from 1 to 60 min post formalin injection, using ANA motion analysis software. The study was analyzed in 2 phases, the early phase extended from 0-10 min and second phase extended from 11-60 min post formalin injection. […]

Compound | IC50 (P2X3) [nM] | second phase flinching response to formalin [1]
CCc1cnnn1-c1cc(C(=O)NCc2ccc(C)nc2)cn2c(-c3ccc(C)s3)cnc12 [Example 22] | 1 to 100 | attenuated the second phase flinching response to formalin
C[C@H](NC(=O)c1cc(-n2nncc2C(F)F)c2ncc(-c3ccc(Cl)s3)n2c1)c1nnc[nH]1 [Example 38] | 1 to 100 | –
CC[C@H](NC(=O)c1cc(-n2nncc2C(F)F)c2ncc(-c3ccc(C)s3)n2c1)c1nnc[nH]1 [Example 52] | 1 to 100 | –
